Measured values: patent US9198420B2, “Rodenticidal norbormide analogues” (priority 2012, dated 2015)
Read-outs that look alike come from different tables or passages of the source.

Key:
rat caudal artery = test: Rat caudal artery ring contractile force (vasoconstrictory activity); set-up: species or system rat (male Wistar)
Description: Male Wistar rats (150-250 g) were obtained from Charles River Italia (Milano, Italy) and killed by decapitation. Ventral caudal artery was isolated, placed in Tyrode solution at room temperature and cleaned of extraneous fatty and connective tissue under a dissection microscope. All vessels were cut into rings 2 mm long, mounted on a custom-built plexiglass support by means of two intraluminal tungsten wires and placed in 20 mL double-jacketed organ baths filled with Tyrode solution of the following composition (mM): NaCl 125, KCl 5, CaCl2 2.7, MgSO4 1, KH2PO4 1.2, NaHCO3 25 and glucose 11, maintained at 37° C., pH 7.35, bubbled with 95% O2 and […]. The endothelium was removed by gently rubbing the lumen of the rings with a very thin rough-surfaced tungsten wire (caudal artery). The mechanical activity of the rings was detected by means of an isometric force transducer (Ugo Basile, Comerio, Italy) coupled to a pen recorder (Ugo Basile, Comerio, Italy). Rings were passively stretched to impose a resting tension (2 g) and were allowed to equilibrate for 60 min. After equilibration, each ring was repeatedly simulated with both KCl (90 mM) and phenylephrine (10 μM) until reproducible responses were obtained. To verify the absence of the endothelium, rings contracted with 1 μM phenylephrine were exposed to […] carbamylcholine. […] Each compound was tested for the vasoconstrictor activity at a concentration of 50 μM, which has been previously reported to be the one evoking the maximal response to norbormide. The contractile responses to the compounds were expressed as percent of the 90 mM KCl response.

Sprague Dawley rats [1] = test: In vivo lethality, intravenous injection via the tail; set-up: species or system rat (Sprague Dawley); conditions: 20 mg/Kg, rat
Description: (§1) Sprague Dawley rats (150-200 g) were used to appraise the rodenticidal activity of the compounds put forward for in vivo evaluation. Briefly, prior to administration the compounds were dissolved in 0.2 M hydrochloric acid (5% DMSO overall), to the desired dose, and without delay either injected intravenously, via the tail, or orally gavaged. All treated animals were housed in a quiet room and monitored every minute (i.v) or every 15 min (oral) to verify early signs of toxicity.

[2] = Rat serum assay (release of NRB or NRB analogue); assay type: in vitro ADME; conditions: 80% rat serum, 37° C., 3 h, n = 3
Description: The hydrolytic stability of compounds of the invention in rat blood was evaluated using in vitro rat serum obtained from Sigma-Aldrich and stored at −78° C. Similar assay conditions to those reported by Li Di and co-workers (Int. J. Pharm. 2005, 297, 110-119) were followed [200 μL total volume, 80% rat serum (diluting with phosphate buffer (0.1 M, pH 7.4)), at a final compound concentration of 200 μM, 2.5% DMSO overall, 37° C., 3 h, n=3] using an Eppendorf Thermomixer Compact. Reactions were quenched by transferring 150 μL of the incubation mixture to 450 μL of ice-cold acetonitrile, affording a final compound/NRB or NRB analogue concentration of 50 μM. Samples were centrifuged at 14,500×g for 15 min using an Eppendorf Mini Spin Plus centrifuge, at ambient temperature. 400 μL of the supernatant was removed and transferred to clean tubes. Analysis was by RP-LCMS at an injection volume of 20 μL. Each compound and corresponding NRB or NRB analogue were subjected to external calibration curves at 50 μM, 100 μM and 200 μM to allow conversion of absorbance unit area into nmol, from which the percentage of NRB or NRB analogue released from each compound was calculated.

[3] = Simulated gastric fluid (SGF) hydrolytic stability assay; assay type: physicochemical; conditions: simulated gastric fluid without pepsin, pH 1.2, 37° C., 1 h, n = 3; for % NRB released, Hydrolytic Stability (simulated gastric fluid): footnote c: compounds not exhibiting vasoconstriction
Description: All in vivo candidates were subjected to a 1 h hydrolytic stability appraisal in the presence of SGF, without pepsin (United States Pharmacopoeia 24) [200 μL total volume, sodium chloride solution (0.03 M) acidified to pH 1.2 with concentrated hydrochloric acid, at a final compound concentration of 200 μM, 2.5% DMSO overall, 37° C., n=3], to investigate any potential chemical instabilities that may occur in the acidic environment of the stomach prior to uptake. Analysis was by RP-LCMS at an injection volume of 5 μL.

Sprague Dawley rats [4] = test: In vivo lethality, oral gavage; set-up: species or system rat (Sprague Dawley); conditions: rat, n = 2
Description: as §1

[5] = Table 5, compounds of formula (III)

Question: For `NCCN1C(=O)C2C3C=C(C(O)(c4ccccc4)c4ccccn4)C(C3=C(c3ccccc3)c3ccccn3)C2C1=O` (stereo not drawn) [Compound 106, N-2′-Aminoethyl-5-(α-hydroxy-α-2-pyridylbenzyl)-7-(α-2-pyridylbenzylidene)-5-norbornene-2,3-dicarboximide], which “Vasoconstriction: maximum contractile effect as a % of 90 mM KCl contraction” value (rat caudal artery; Table 7, compounds of formula (V)) is on record?
Answer: ≧132%

Question: What about the “Vasoconstriction: maximum contractile effect as a % of 90 mM KCl contraction” value (rat caudal artery; n = 3, Table 8) of the same compound?
Answer: ≧132%

Question: What about the “In vivo lethality (i.v.)” value (Sprague Dawley rats [1]; n = 3, Table 8) of the same compound?
Answer: yes^b

Question: With `O=C(C=Cc1ccccc1)OCCCCN1C(=O)C2C3C=C(C(O)(c4ccccc4)c4ccccn4)C(C3=C(c3ccccc3)c3ccccn3)C2C1=O` (stereo not drawn) [Compound 137, N-4′-Cinnamoyloxybutyl-5-(α-hydroxy-α-2-pyridylbenzyl)-7-(α-2-pyridylbenzylidene)-5-norbornene-2,3-dicarboximide] as the compound, how does the “Vasoconstriction: maximum contractile effect as a % of 90 mM KCl contraction” value (rat caudal artery; Table 1, compound at 50 μM) read?
Answer: 0%

Question: And the “Vasoconstriction: maximum contractile effect as a % of 90 mM KCl contraction” value (rat caudal artery; Table 4, pre-cleavage, n = 3)?
Answer: 0%

Question: What about the “% NRB released, Rat Serum” value [2] of the same compound?
Answer: 81.0 ± 0.8%

Question: And the “% NRB released, Hydrolytic Stability (simulated gastric fluid)” value (“% NRB released … (simulated gastric fluid)” for short) [3]?
Answer: 0^c %

Question: With `O=C(CCCCCCCCCCC(=O)OCCN1C(=O)C2C3C=C(C(O)(c4ccccc4)c4ccccn4)C(C3=C(c3ccccc3)c3ccccn3)C2C1=O)OCCN1C(=O)C2C3C=C(C(O)(c4ccccc4)c4ccccn4)C(C3=C(c3ccccc3)c3ccccn3)C2C1=O` (stereo not drawn) [Compound 142, N-2′-Dodecanedioyloxyethyl-5-(α-hydroxy-α-2-pyridylbenzyl)-7-(α-2-pyridylbenzylidene)-5-norbornene-2,3-dicarboximide dimer] as the compound, how does the “Vasoconstriction: maximum contractile effect as a % of 90 mM KCl contraction” value (rat caudal artery; [5]) read?
Answer: 0%

Question: And the “Vasoconstriction: maximum contractile effect as a % of 90 mM KCl contraction” value (rat caudal artery; n = 3, pre-cleavage, Table 6)?
Answer: 0%

Question: And the “% NRB released, Rat Serum” value [2]?
Answer: <5%

Question: What about the “% NRB released, Hydrolytic Stability” value [3] of the same compound?
Answer: 0%

Question: With `CCCCCCCCCCCC(=O)OCCN1C(=O)C2C3C=C(C(O)(c4ccccc4)c4ccccn4)C(C3=C(c3ccccc3)c3ccccn3)C2C1=O` (stereo not drawn) [Compound 112, N-2′-Dodecanoyloxyethyl-5-(α-hydroxy-α-2-pyridylbenzyl)-7-(α-2-pyridylbenzylidene)-5-norbornene-2,3-dicarboximide] as the compound, how does the “Vasoconstriction: maximum contractile effect as a % of 90 mM KCl contraction” value (rat caudal artery; Table 1, compound at 50 μM) read?
Answer: 0%

Question: What about the “Vasoconstriction: maximum contractile effect as a % of 90 mM KCl contraction” value (rat caudal artery; Table 4, pre-cleavage, n = 3) of the same compound?
Answer: 0%

Question: What about the “% NRB released, Rat Serum” value [2] of the same compound?
Answer: 19.3 ± 1.3%

Question: What about the “% NRB released … (simulated gastric fluid)” value [3] of the same compound?
Answer: 0^c %

Question: For `O=C(C=Cc1ccccc1)OCCN1C(=O)C2C3C=C(C(O)(c4ccccc4)c4ccccn4)C(C3=C(c3ccccc3)c3ccccn3)C2C1=O` (stereo not drawn) [Compound 120, N-2′-Cinnamoyloxyethyl-5-(α-hydroxy-α-2-pyridylbenzyl)-7-(α-2-pyridylbenzylidene)-5-norbornene-2,3-dicarboximide], which “Vasoconstriction: maximum contractile effect as a % of 90 mM KCl contraction” value (rat caudal artery; Table 1, compound at 50 μM) is on record?
Answer: 66%

Question: What about the “Vasoconstriction: maximum contractile effect as a % of 90 mM KCl contraction” value (rat caudal artery; Table 4, pre-cleavage, n = 3) of the same compound?
Answer: 66%

Question: What about the “% NRB released, Rat Serum” value [2] of the same compound?
Answer: 14.1 ± 0.4%

Question: What about the “% NRB released … (simulated gastric fluid)” value [3] of the same compound?
Answer: 0^c %

Question: With `CC(CN1C(=O)C2C3C=C(C(O)(c4ccccc4)c4ccccn4)C(C3=C(c3ccccc3)c3ccccn3)C2C1=O)OC(=O)C=Cc1ccccc1` (stereo not drawn) [Compound 135, N-2′-Cinnamoyloxypropyl-5-(α-hydroxy-α-2-pyridylbenzyl)-7-(α-2-pyridylbenzylidene)-5-norbornene-2,3-dicarboximide] as the compound, how does the “Vasoconstriction: maximum contractile effect as a % of 90 mM KCl contraction” value (rat caudal artery; Table 1, compound at 50 μM) read?
Answer: 0%

Question: And the “Vasoconstriction: maximum contractile effect as a % of 90 mM KCl contraction” value (rat caudal artery; Table 4, pre-cleavage, n = 3)?
Answer: 0%

Question: And the “% NRB released, Rat Serum” value [2]?
Answer: 33.8 ± 6.1%

Question: What about the “% NRB released … (simulated gastric fluid)” value [3] of the same compound?
Answer: 0^c %

Question: For `O=C(CCCCCCC(=O)OCN1C(=O)C2C3C=C(C(O)(c4ccccc4)c4ccccn4)C(C3=C(c3ccccc3)c3ccccn3)C2C1=O)OCN1C(=O)C2C3C=C(C(O)(c4ccccc4)c4ccccn4)C(C3=C(c3ccccc3)c3ccccn3)C2C1=O` (stereo not drawn) [Compound 23, 5-(α-Hydroxy-α-2-pyridylbenzyl)-7-(α-2-pyridylbenzylidene)-N-suberoyloxymethyl-5-norbornene-2,3-dicarboximide dimer], which “Vasoconstriction: maximum contractile effect as a % of 90 mM KCl contraction” value (rat caudal artery; [5]) is on record?
Answer: 0%

Question: And the “Vasoconstriction: maximum contractile effect as a % of 90 mM KCl contraction” value (rat caudal artery; n = 3, pre-cleavage, Table 6)?
Answer: 0%

Question: What about the “% NRB released, Rat Serum” value [2] of the same compound?
Answer: 14.9 ± 5.0%

Question: And the “% NRB released, Hydrolytic Stability” value [3]?
Answer: 0%

Question: What does the source list for `O=C(CCC(=O)OCN1C(=O)C2C3C=C(C(O)(c4ccccc4)c4ccccn4)C(C3=C(c3ccccc3)c3ccccn3)C2C1=O)OCCOC(=O)CCC(=O)OCN1C(=O)C2C3C=C(C(O)(c4ccccc4)c4ccccn4)C(C3=C(c3ccccc3)c3ccccn3)C2C1=O` (stereo not drawn) [Compound 27, N-[α-(Ethylenebis(hydrogensuccinoyloxy))methyl]-5-(α-hydroxy-α-2-pyridylbenzyl)-7-(α-2-pyridylbenzylidene)-5-norbornene-2,3-dicarboximide dimer]?
Answer: Vasoconstriction: maximum contractile effect as a % of 90 mM KCl contraction (rat caudal artery; [5]): 0%; Vasoconstriction: maximum contractile effect as a % of 90 mM KCl contraction (rat caudal artery; n = 3, pre-cleavage, Table 6): 0%; % NRB released, Rat Serum [2]: 20.8 ± 0.7%; % NRB released, Hydrolytic Stability [3]: 0%

Question: Which results are given for `O=C(CCCCC(=O)OCCN1C(=O)C2C3C=C(C(O)(c4ccccc4)c4ccccn4)C(C3=C(c3ccccc3)c3ccccn3)C2C1=O)OCCN1C(=O)C2C3C=C(C(O)(c4ccccc4)c4ccccn4)C(C3=C(c3ccccc3)c3ccccn3)C2C1=O` (stereo not drawn) [Compound 139, N-2′-Adipoyloxyethyl-5-(α-hydroxy-α-2-pyridylbenzyl)-7-(α-2-pyridylbenzylidene)-5-norbornene-2,3-dicarboximide dimer]?
Answer: Vasoconstriction: maximum contractile effect as a % of 90 mM KCl contraction (rat caudal artery; [5]): 20%; Vasoconstriction: maximum contractile effect as a % of 90 mM KCl contraction (rat caudal artery; n = 3, pre-cleavage, Table 6): 20%; % NRB released, Rat Serum [2]: 11.7 ± 1.6%; % NRB released, Hydrolytic Stability [3]: 0%

Question: For `O=C(C=Cc1ccc(Cl)cc1)OCCN1C(=O)C2C3C=C(C(O)(c4ccccc4)c4ccccn4)C(C3=C(c3ccccc3)c3ccccn3)C2C1=O` (stereo not drawn) [Compound 129, N-[2′-(4″-Chlorocinnamoyloxy)ethyl]-5-(α-hydroxy-α-2-pyridylbenzyl)-7-(α-2-pyridylbenzylidene)-5-norbornene-2,3-dicarboximide], which “In vivo lethality (oral)” value (Sprague Dawley rats [4]; 20 mg/Kg) is on record?
Answer: yes^h,i

Question: And the “In vivo lethality (oral)” value (Sprague Dawley rats [4]; 40 mg/Kg)?
Answer: yes^h,i

Question: And the Emax (rat caudal artery; Table 1, read-out: Vasoconstriction: maximum contractile effect as a % of 90 mM KCl contraction)?
Answer: 0%

Question: What about the “Vasoconstriction: maximum contractile effect as a % of 90 mM KCl contraction” value (rat caudal artery; Table 4, pre-cleavage, n = 3) of the same compound?
Answer: 0%

Question: What about the “In vivo lethality (i.v.)” value (Sprague Dawley rats [1]; n = 2) of the same compound?
Answer: yes^f

Question: For `O=C(CCC(=O)OCCN1C(=O)C2C3C=C(C(O)(c4ccccc4)c4ccccn4)C(C3=C(c3ccccc3)c3ccccn3)C2C1=O)OCCN1C(=O)C2C3C=C(C(O)(c4ccccc4)c4ccccn4)C(C3=C(c3ccccc3)c3ccccn3)C2C1=O` (stereo not drawn) [Compound 138, 5-(α-Hydroxy-α-2-pyridylbenzyl)-7-(α-2-pyridylbenzylidene)-N-2′-succinoyloxyethyl-5-norbornene-2,3-dicarboximide dimer], which “Vasoconstriction: maximum contractile effect as a % of 90 mM KCl contraction” value (rat caudal artery; [5]) is on record?
Answer: 0%

Question: And the “Vasoconstriction: maximum contractile effect as a % of 90 mM KCl contraction” value (rat caudal artery; n = 3, pre-cleavage, Table 6)?
Answer: 0%

Question: What about the “% NRB released, Rat Serum” value [2] of the same compound?
Answer: 7.7 ± 0.2%

Question: And the “% NRB released, Hydrolytic Stability” value [3]?
Answer: 0%

Question: What does the source list for `O=C(O)CN1C(=O)C2C3C=C(C(O)(c4ccccc4)c4ccccn4)C(C3=C(c3ccccc3)c3ccccn3)C2C1=O` (stereo not drawn) [Compound 107, N-Carboxymethyl-5-(α-hydroxy-α-2-pyridylbenzyl)-7-(α-2-pyridylbenzylidene)-5-norbornene-2,3-dicarboximide]?
Answer: Emax (rat caudal artery; Table 7, compounds of formula (V), read-out: Vasoconstriction: maximum contractile effect as a % of 90 mM KCl contraction): ≥ 132%; Vasoconstriction: maximum contractile effect as a % of 90 mM KCl contraction (rat caudal artery; n = 3, Table 8): ≧132%; In vivo lethality (i.v.) (Sprague Dawley rats [1]; n = 3, Table 8): yes^b
